Read-outs that look alike come from different tables or passages of the source.
Assays:
E. coli mL308 225 = experiment: In Vitro Anti-Bacterial Activity Assay (MIC), gram negative; format: cell-based; settings: Escherichia coli, ML308225, 18 h, read-out: Antibiotic Activity Gram −
S. aureus RN450 = experiment: In Vitro Anti-Bacterial Activity Assay (MIC), gram positive; format: cell-based; settings: Staphylococcus aureus, RN450, 18 h, read-out: Antibiotic Activity Gram +

CCc1cc(CNC(C)=O)c(O)c2c1C[C@H]1C[C@H]3C(N(C)C)C(O)=C(C(N)=O)C(=O)[C@@]3(O)C(O)=C1C2=O (stereo partly shown) [EM]
MIC (E. coli mL308 225; MIC class, Table 3): > 4 µg/mL
MIC (S. aureus RN450; MIC class, Table 3): < 4 µg/mL

CN(C)c1cc(CNC(=O)OCC(C)(C)C)c(O)c2c1C[C@H]1C[C@H]3[C@H](N(C)C)C(O)=C(C(N)=O)C(=O)[C@@]3(O)C(O)=C1C2=O [EN]
MIC (E. coli mL308 225; MIC class, Table 3): > 4 µg/mL
MIC (S. aureus RN450; MIC class, Table 3): < 4 µg/mL

C=CCCOC(=O)NCc1cc(N(C)C)c2c(c1O)C(=O)C1=C(O)[C@]3(O)C(=O)C(C(N)=O)=C(O)[C@@H](N(C)C)[C@@H]3C[C@@H]1C2 [EO]
MIC (E. coli mL308 225; MIC class, Table 3): > 4 µg/mL
MIC (S. aureus RN450; MIC class, Table 3): < 4 µg/mL

CN(C)c1cc(CNC(=O)Oc2ccccc2)c(O)c2c1C[C@H]1C[C@H]3[C@H](N(C)C)C(O)=C(C(N)=O)C(=O)[C@@]3(O)C(O)=C1C2=O [EP]
MIC (E. coli mL308 225): > 4 µg/mL
MIC (S. aureus RN450): < 4 µg/mL

CC(C)COC(=O)NCc1cc(N(C)C)c2c(c1O)C(=O)C1=C(O)[C@]3(O)C(=O)C(C(N)=O)=C(O)[C@H](N(C)C)[C@@H]3C[C@@H]1C2 [EQ]
MIC (E. coli mL308 225; MIC class, Table 3): > 4 µg/mL
MIC (S. aureus RN450; MIC class, Table 3): < 4 µg/mL

CCCCOC(=O)NCc1cc(N(C)C)c2c(c1O)C(=O)C1=C(O)[C@]3(O)C(=O)C(C(N)=O)=C(O)[C@H](N(C)C)[C@@H]3C[C@@H]1C2 [ER]
MIC (E. coli mL308 225; MIC class, Table 3): > 4 µg/mL
MIC (S. aureus RN450; MIC class, Table 3): < 4 µg/mL

CCOC(=O)NCc1cc(N(C)C)c2c(c1O)C(=O)C1=C(O)[C@]3(O)C(=O)C(C(N)=O)=C(O)[C@H](N(C)C)[C@@H]3C[C@@H]1C2 [ES]
MIC (E. coli mL308 225; MIC class, Table 3): > 4 µg/mL
MIC (S. aureus RN450; MIC class, Table 3): < 4 µg/mL

CO/N=C(/C)c1ccc(O)c2c1C[C@H]1C[C@H]3C(N(C)C)C(O)=C(C(N)=O)C(=O)[C@@]3(O)C(O)=C1C2=O (stereo partly shown) [ET]
MIC (E. coli mL308 225; MIC class, Table 3): < 4 µg/mL
MIC (S. aureus RN450; MIC class, Table 3): < 4 µg/mL

CO/N=C(\C)c1ccc(O)c2c1C[C@H]1C[C@H]3[C@H](N(C)C)C(O)=C(C(N)=O)C(=O)[C@@]3(O)C(O)=C1C2=O [EU]
MIC (E. coli mL308 225; MIC class, Table 3): < 4 µg/mL
MIC (S. aureus RN450; MIC class, Table 3): < 4 µg/mL

CCCCN(CCCC)Cc1cc(N(C)C)c2c(c1O)C(=O)C1=C(O)[C@]3(O)C(=O)C(C(N)=O)=C(O)C(N(C)C)[C@@H]3C[C@@H]1C2 (stereo partly shown) [EZ]
MIC (E. coli mL308 225; MIC class, Table 3): > 4 µg/mL
MIC (S. aureus RN450; MIC class, Table 3): < 4 µg/mL

CN(C)[C@@H]1C(O)=C(C(N)=O)C(=O)[C@@]2(O)C(O)=C3C(=O)c4c(O)cccc4C[C@H]3C[C@@H]12 [E]
MIC (E. coli mL308 225; MIC class, Table 3): < 4 µg/mL
MIC (S. aureus RN450; MIC class, Table 3): < 4 µg/mL

CN(C)c1cc(NCc2cccnc2)c(O)c2c1C[C@H]1C[C@H]3C(N(C)C)C(O)=C(C(N)=O)C(=O)[C@@]3(O)C(O)=C1C2=O (stereo partly shown) [FA]
MIC (E. coli mL308 225; MIC class, Table 3): > 4 µg/mL
MIC (S. aureus RN450; MIC class, Table 3): > 4 µg/mL

CC(C)CNC(=N)Nc1cc(N(C)C)c2c(c1O)C(=O)C1=C(O)[C@]3(O)C(=O)C(C(N)=O)=C(O)[C@@H](N(C)C)[C@@H]3C[C@@H]1C2 [FB]
MIC (E. coli mL308 225; MIC class, Table 3): > 4 µg/mL
MIC (S. aureus RN450; MIC class, Table 3): > 4 µg/mL

COC(=O)CCc1ccc(O)c2c1C[C@H]1C[C@H]3C(N(C)C)C(O)=C(C(N)=O)C(=O)[C@@]3(O)C(O)=C1C2=O (stereo partly shown) [FC]
MIC (E. coli mL308 225; MIC class, Table 3): > 4 µg/mL
MIC (S. aureus RN450; MIC class, Table 3): < 4 µg/mL

CN(C)c1cc(CNCC(C)(C)C)c(O)c2c1C[C@H]1C[C@H]3[C@H](N(C)C)C(O)=C(C(N)=O)C(=O)[C@@]3(O)C(O)=C1C2=O [FD]
MIC (E. coli mL308 225; MIC class, Table 3): < 4 µg/mL
MIC (S. aureus RN450; MIC class, Table 3): < 4 µg/mL

CCCCCCOC(=O)NCc1cc(N(C)C)c2c(c1O)C(=O)C1=C(O)[C@]3(O)C(=O)C(C(N)=O)=C(O)[C@@H](N(C)C)[C@@H]3C[C@@H]1C2 [FE]
MIC (E. coli mL308 225; MIC class, Table 3): > 4 µg/mL
MIC (S. aureus RN450; MIC class, Table 3): < 4 µg/mL

Cc1ccc(OC(=O)NCc2cc(N(C)C)c3c(c2O)C(=O)C2=C(O)[C@]4(O)C(=O)C(C(N)=O)=C(O)[C@@H](N(C)C)[C@@H]4C[C@@H]2C3)cc1 [FG]
MIC (E. coli mL308 225): > 4 µg/mL
MIC (S. aureus RN450): < 4 µg/mL

CN(C)c1cc(CNC(=O)Oc2ccc(Br)cc2)c(O)c2c1C[C@H]1C[C@H]3[C@H](N(C)C)C(O)=C(C(N)=O)C(=O)[C@@]3(O)C(O)=C1C2=O [FH]
MIC (E. coli mL308 225): > 4 µg/mL
MIC (S. aureus RN450): < 4 µg/mL

CN(C)c1cc(CNC(=O)OCC(Cl)(Cl)Cl)c(O)c2c1C[C@H]1C[C@H]3[C@H](N(C)C)C(O)=C(C(N)=O)C(=O)[C@@]3(O)C(O)=C1C2=O [FI]
MIC (E. coli mL308 225; MIC class, Table 3): > 4 µg/mL
MIC (S. aureus RN450; MIC class, Table 3): < 4 µg/mL

CN(C)c1cc(CNC(=O)Oc2ccc(F)cc2)c(O)c2c1C[C@H]1C[C@H]3[C@H](N(C)C)C(O)=C(C(N)=O)C(=O)[C@@]3(O)C(O)=C1C2=O [FJ]
MIC (E. coli mL308 225): > 4 µg/mL
MIC (S. aureus RN450): < 4 µg/mL

CC(=O)c1ccc(NC(=O)NCc2cc(N(C)C)c3c(c2O)C(=O)C2=C(O)[C@]4(O)C(=O)C(C(N)=O)=C(O)[C@@H](N(C)C)[C@@H]4C[C@@H]2C3)cc1 [FL]
MIC (E. coli mL308 225; MIC class, Table 3): > 4 µg/mL
MIC (S. aureus RN450; MIC class, Table 3): < 4 µg/mL

CN(C)[C@@H]1C(O)=C(C(N)=O)C(=O)[C@@]2(O)C(O)=C3C(=O)c4c(O)ccc(C#CCCC#Cc5ccc(O)c6c5C[C@H]5C[C@H]7[C@H](N(C)C)C(O)=C(C(N)=O)C(=O)[C@@]7(O)C(O)=C5C6=O)c4C[C@H]3C[C@@H]12 [FM]
MIC (E. coli mL308 225; MIC class, Table 3): > 4 µg/mL
MIC (S. aureus RN450; MIC class, Table 3): > 4 µg/mL

CN(C)c1ccc(NC(=O)NCc2cc(N(C)C)c3c(c2O)C(=O)C2=C(O)[C@]4(O)C(=O)C(C(N)=O)=C(O)[C@@H](N(C)C)[C@@H]4C[C@@H]2C3)cc1 [FN]
MIC (E. coli mL308 225; MIC class, Table 3): > 4 µg/mL
MIC (S. aureus RN450; MIC class, Table 3): < 4 µg/mL

— patent publication US20150141381A1, “TETRACYCLINE COMPOUNDS HAVING TARGET THERAPEUTIC ACTIVITIES” (Paratek Pharmaceuticals, Inc., priority 2001, published 2015)
